Experimental data taken from PubChem BioAssay AID1963827 (Molecular Pharmacology Branch, DTP, NCI, 2024).

Tested on: 994946-033-R-J1-PDC complex spheroid viability
Assay: Anticancer human tumor 994946-033-R-J1-PDC patient-derived melanoma cell line growth inhibition [POLQ]
Details: for IC50: curve of first compound; for viability, T/C: stronger effect = lower value
Procedure, shortened: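 Three-cell-type spheroids modelling solid tumor plus stroma served as the readout system; POL inhibitors were tested individually and in combination, concentration ranges set by clinical Cmax where known.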

[1] = second compound 0.0316 µM, first compound 0.0316 µM
[2] = second compound 0.0316 µM, first compound 0.1 µM
[3] = second compound 0.0316 µM, first compound 0.316 µM
[4] = second compound 0.0316 µM, first compound 1 µM
[5] = second compound 0.0316 µM, first compound 3.16 µM
[6] = second compound 0.0316 µM, first compound 10 µM
[7] = second compound 0.1 µM, first compound 0.0316 µM
[8] = second compound 0.1 µM, first compound 0.1 µM
[9] = second compound 0.1 µM, first compound 0.316 µM
[10] = second compound 0.1 µM, first compound 1 µM
[11] = second compound 0.1 µM, first compound 3.16 µM
[12] = second compound 0.1 µM, first compound 10 µM
[13] = second compound 0.316 µM, first compound 0.0316 µM
[14] = second compound 0.316 µM, first compound 0.1 µM
[15] = second compound 0.316 µM, first compound 0.316 µM
[16] = second compound 0.316 µM, first compound 1 µM
[17] = second compound 0.316 µM, first compound 3.16 µM
[18] = second compound 0.316 µM, first compound 10 µM
[19] = second compound 1 µM, first compound 0.0316 µM
[20] = second compound 1 µM, first compound 0.1 µM
[21] = second compound 1 µM, first compound 0.316 µM
[22] = second compound 1 µM, first compound 1 µM
[23] = second compound 1 µM, first compound 3.16 µM
[24] = second compound 1 µM, first compound 10 µM
[25] = second compound 3.16 µM, first compound 0.0316 µM
[26] = second compound 3.16 µM, first compound 0.1 µM
[27] = second compound 3.16 µM, first compound 0.316 µM
[28] = second compound 3.16 µM, first compound 1 µM
[29] = second compound 3.16 µM, first compound 3.16 µM
[30] = second compound 3.16 µM, first compound 10 µM
[31] = second compound 10 µM, first compound 0.0316 µM
[32] = second compound 10 µM, first compound 0.1 µM
[33] = second compound 10 µM, first compound 0.316 µM
[34] = second compound 10 µM, first compound 1 µM
[35] = second compound 10 µM, first compound 3.16 µM
[36] = second compound 10 µM, first compound 10 µM
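Note: spheroids exposed to drugs for 7 days.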
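Throughout, for viability, T/C: 100% = DMSO vehicle treated spheroids.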

`CNCc1ccc(-c2[nH]c3cc(F)cc4c3c2CCNC4=O)cc1` + Nc1ccc(C#CCN(C(=O)Cc2ncc(C(F)(F)F)cc2C(F)(F)F)c2ccc(F)cc2)nn1 gave an IC50 (second compound 0.0316 µM) greater than 10 µM, an IC50 (second compound 0.1 µM) greater than 10 µM and an IC50 (second compound 0.316 µM) greater than 10 µM. It also gave an IC50 (second compound 1 µM) greater than 10 µM, an IC50 (second compound 3.16 µM) greater than 10 µM and an IC50 (second compound 10 µM) greater than 10 µM. It also gave a viability, T/C [1] of 97.4%, a viability, T/C [2] of 84.1% and a viability, T/C [3] of 84%. The viability, T/C [4] was 85.3%, the viability, T/C [5] was 94.5% and the viability, T/C [6] was 79%. For the same molecule, the viability, T/C [7] was 77.9%, the viability, T/C [8] was 83.1% and the viability, T/C [9] was 99.7%. For the same molecule, the viability, T/C [10] was 61.5%, the viability, T/C [11] was 95.8% and the viability, T/C [12] was 70.6%. For the same molecule, the viability, T/C [13] was 81.7%, the viability, T/C [14] was 86.4% and the viability, T/C [15] was 90%. For the same molecule, the viability, T/C [16] was 68.8%, the viability, T/C [17] was 77.2% and the viability, T/C [18] was 69.1%. It also gave a viability, T/C [19] of 73.4%, a viability, T/C [20] of 69.2% and a viability, T/C [21] of 107%. For the same molecule, the viability, T/C [22] was 77.9%, the viability, T/C [23] was 103% and the viability, T/C [24] was 63.1%. For the same molecule, the viability, T/C [25] was 105%, the viability, T/C [26] was 105% and the viability, T/C [27] was 85%. It also gave a viability, T/C [28] of 107%, a viability, T/C [29] of 74.2% and a viability, T/C [30] of 77.5%. The viability, T/C [31] was 72%, the viability, T/C [32] was 74.2% and the viability, T/C [33] was 88.7%. It also gave a viability, T/C [34] of 113%, a viability, T/C [35] of 96% and a viability, T/C [36] of 78.3%.

Work on `COc1ccc([C@@H](O)c2cc(-c3ncnc4cc(N5CCOCC5)ccc34)c(F)cc2Cl)nn1` + Cc1cccc(N(C)C(=O)C2C(O)CCN2c2nc(C)cc(C(F)(F)F)c2C#N)c1 yielded an IC50 (second compound 0.0316 µM) of 4.06 µM, an IC50 (second compound 0.1 µM) of 6.54 µM and an IC50 (second compound 0.316 µM) of 2.25 µM. The IC50 (second compound 1 µM) was 6.16 µM, the IC50 (second compound 3.16 µM) was 2.65 µM and the IC50 (second compound 10 µM) was 6.2 µM. It also gave a viability, T/C [1] of 108%, a viability, T/C [2] of 95.1% and a viability, T/C [3] of 106%. It also gave a viability, T/C [4] of 64.1%, a viability, T/C [5] of 60.7% and a viability, T/C [6] of 32.5%. For the same molecule, the viability, T/C [7] was 90.9%, the viability, T/C [8] was 105% and the viability, T/C [9] was 93.3%. It also gave a viability, T/C [10] of 78.5%, a viability, T/C [11] of 71.6% and a viability, T/C [12] of 38.4%. For the same molecule, the viability, T/C [13] was 118%, the viability, T/C [14] was 94.1% and the viability, T/C [15] was 103%. The viability, T/C [16] was 60.4%, the viability, T/C [17] was 45.6% and the viability, T/C [18] was 45.1%. It also gave a viability, T/C [19] of 104%, a viability, T/C [20] of 96.6% and a viability, T/C [21] of 82%. It also gave a viability, T/C [22] of 105%, a viability, T/C [23] of 60.9% and a viability, T/C [24] of 42.1%. The viability, T/C [25] was 115%, the viability, T/C [26] was 125% and the viability, T/C [27] was 101%. For the same molecule, the viability, T/C [28] was 60.5%, the viability, T/C [29] was 56.8% and the viability, T/C [30] was 38.6%. For the same molecule, the viability, T/C [31] was 74.9%, the viability, T/C [32] was 101% and the viability, T/C [33] was 60.3%. For the same molecule, the viability, T/C [34] was 76.6%, the viability, T/C [35] was 62.7% and the viability, T/C [36] was 41.1%.

With `CC(=O)O[C@H]1C(=O)[C@@]2(C)[C@H]([C@H](OC(=O)c3ccccc3)[C@]3(O)C[C@H](OC(=O)[C@H](O)[C@@H](NC(=O)c4ccccc4)c4ccccc4)C(C)=C1C3(C)C)[C@]1(OC(C)=O)CO[C@@H]1C[C@@H]2O` + Nc1ccc(C#CCN(C(=O)Cc2ncc(C(F)(F)F)cc2C(F)(F)F)c2ccc(F)cc2)nn1 the IC50 (second compound 0.0316 µM) was less than 0.00949 µM, the IC50 (second compound 0.1 µM) was less than 0.00949 µM and the IC50 (second compound 0.316 µM) was less than 0.00949 µM. For the same molecule, the IC50 (second compound 1 µM) was less than 0.00949 µM, the IC50 (second compound 3.16 µM) was less than 0.00949 µM and the IC50 (second compound 10 µM) was less than 0.00949 µM. For the same molecule, the viability, T/C (second compound 0.0316 µM, first compound 0.00949 µM) was 20.4%, the viability, T/C (second compound 0.0316 µM, first compound 0.03 µM) was 18.5% and the viability, T/C (second compound 0.0316 µM, first compound 0.0949 µM) was 14.8%. For the same molecule, the viability, T/C (second compound 0.0316 µM, first compound 0.3 µM) was 22%, the viability, T/C (second compound 0.0316 µM, first compound 0.949 µM) was 13.5% and the viability, T/C (second compound 0.0316 µM, first compound 3 µM) was 12%. It also gave a viability, T/C (second compound 0.1 µM, first compound 0.00949 µM) of 25.9%, a viability, T/C (second compound 0.1 µM, first compound 0.03 µM) of 23.6% and a viability, T/C (second compound 0.1 µM, first compound 0.0949 µM) of 19.4%. It also gave a viability, T/C (second compound 0.1 µM, first compound 0.3 µM) of 15.9%, a viability, T/C (second compound 0.1 µM, first compound 0.949 µM) of 9.63% and a viability, T/C (second compound 0.1 µM, first compound 3 µM) of 13.3%. It also gave a viability, T/C (second compound 0.316 µM, first compound 0.00949 µM) of 22.3%, a viability, T/C (second compound 0.316 µM, first compound 0.03 µM) of 20.8% and a viability, T/C (second compound 0.316 µM, first compound 0.0949 µM) of 20.4%. It also gave a viability, T/C (second compound 0.316 µM, first compound 0.3 µM) of 15.9%, a viability, T/C (second compound 0.316 µM, first compound 0.949 µM) of 13.8% and a viability, T/C (second compound 0.316 µM, first compound 3 µM) of 13.9%. For the same molecule, the viability, T/C (second compound 1 µM, first compound 0.00949 µM) was 29.7%, the viability, T/C (second compound 1 µM, first compound 0.03 µM) was 24.9% and the viability, T/C (second compound 1 µM, first compound 0.0949 µM) was 20%. For the same molecule, the viability, T/C (second compound 1 µM, first compound 0.3 µM) was 20%, the viability, T/C (second compound 1 µM, first compound 0.949 µM) was 15.3% and the viability, T/C (second compound 1 µM, first compound 3 µM) was 13.2%. It also gave a viability, T/C (second compound 3.16 µM, first compound 0.00949 µM) of 29.2%, a viability, T/C (second compound 3.16 µM, first compound 0.03 µM) of 24.2% and a viability, T/C (second compound 3.16 µM, first compound 0.0949 µM) of 18.4%. For the same molecule, the viability, T/C (second compound 3.16 µM, first compound 0.3 µM) was 15.3%, the viability, T/C (second compound 3.16 µM, first compound 0.949 µM) was 14.1% and the viability, T/C (second compound 3.16 µM, first compound 3 µM) was 12.1%. For the same molecule, the viability, T/C (second compound 10 µM, first compound 0.00949 µM) was 24.8%, the viability, T/C (second compound 10 µM, first compound 0.03 µM) was 24% and the viability, T/C (second compound 10 µM, first compound 0.0949 µM) was 25%. It also gave a viability, T/C (second compound 10 µM, first compound 0.3 µM) of 18%, a viability, T/C (second compound 10 µM, first compound 0.949 µM) of 18.9% and a viability, T/C (second compound 10 µM, first compound 3 µM) of 12.2%.
